ChEMBL document CHEMBL1641539 (Bioorg Med Chem Lett, 2011)

Columns and labels:
[1] = molecular target: Platelet-derived growth factor receptor beta (Homo sapiens) (UniProt P09619); assay: Inhibition of human PDGFRbeta at 10 uM after 60 mins by TR-FRET assay; values are per cent of control
[2] = molecular target: Rhodopsin kinase GRK7 (Homo sapiens) (UniProt Q8WTQ7); assay: Inhibition of human GRK7 at 10 uM after 60 mins by TR-FRET assay; values are per cent of control
[3] = molecular target: Mitogen-activated protein kinase kinase kinase 7 (Homo sapiens) (UniProt O43318); assay: Inhibition of human TAK1 at 10 uM after 60 mins by TR-FRET assay; values are per cent of control
[4] = tested on: Tyrosine-protein kinase BTK (Homo sapiens), Q06187 [R28H]; assay: Inhibition of human BTK R28H mutant at 10 uM after 60 mins by TR-FRET assay; values are per cent of control
[5] = molecular target: Serine/threonine-protein kinase MARK1 (Homo sapiens) (UniProt Q9P0L2); assay: Inhibition of human MARK1 at 10 uM after 60 mins by TR-FRET assay; values are per cent of control
[6] = molecular target: Serine/threonine-protein kinase PLK1 (Homo sapiens) (UniProt P53350); assay: Inhibition of human Plk1 at 10 uM after 60 mins by TR-FRET assay; values are per cent of control
[7] = molecular target: Serine/threonine-protein kinase TAO1 (Homo sapiens) (UniProt Q7L7X3); assay: Inhibition of human TAO1 at 10 uM after 60 mins by TR-FRET assay; values are per cent of control
[8] = molecular target: Cyclin-dependent kinase 7/ cyclin H (Homo sapiens) (UniProt P51946+P50613); assay: Inhibition of human CDK7/cyclinH/MAT1 at 10 uM after 60 mins by TR-FRET assay; values are per cent of control
[9] = molecular target: Protein kinase C gamma type (Homo sapiens) (UniProt P05129); assay: Inhibition of human PKCgamma at 10 uM after 60 mins by TR-FRET assay; values are per cent of control
[10] = molecular target: Ephrin type-A receptor 5 (Homo sapiens) (UniProt P54756); assay: Inhibition of human EphA5 at 10 uM after 60 mins by TR-FRET assay; details: values are per cent of control
[11] = molecular target: Ribosomal protein S6 kinase alpha-2 (Homo sapiens) (UniProt Q15349); assay: Inhibition of human Rsk3 at 10 uM after 60 mins by TR-FRET assay; details: values are per cent of control
[12] = molecular target: Tyrosine-protein kinase receptor TYRO3 (Homo sapiens) (UniProt Q06418); assay: Inhibition of human Rse at 10 uM after 60 mins by TR-FRET assay; details: values are per cent of control
[13] = tested on: Tyrosine-protein kinase ABL1 (Homo sapiens), P00519 [T315I]; assay: Inhibition of human Abl T315I mutant at 10 uM after 60 mins by TR-FRET assay; values are per cent of control
[14] = molecular target: Dual specificity mitogen-activated protein kinase kinase 4 (Mus musculus) (UniProt P47809); assay: Inhibition of mouse MKK4 at 10 uM after 60 mins by TR-FRET assay; values are per cent of control
[15] = molecular target: Vascular endothelial growth factor receptor 2 (Homo sapiens) (UniProt P35968); assay: Inhibition of human KDR at 10 uM after 60 mins by TR-FRET assay; values are per cent of control
[16] = molecular target: Serine/threonine-protein kinase MRCK alpha (Homo sapiens) (UniProt Q5VT25); assay: Inhibition of human MRCKalpha at 10 uM after 60 mins by TR-FRET assay; values are per cent of control
[17] = molecular target: Tyrosine-protein kinase ZAP-70 (Homo sapiens) (UniProt P43403); assay: Inhibition of human ZAP-70 at 10 uM after 60 mins by TR-FRET assay; values are per cent of control
[18] = molecular target: cGMP-dependent protein kinase 1 (Homo sapiens) (UniProt Q13976); assay: Inhibition of human PKG1alpha at 10 uM after 60 mins by TR-FRET assay; values are per cent of control
[19] = molecular target: Calcium/calmodulin-dependent protein kinase type II subunit delta (Homo sapiens) (UniProt Q13557); assay: Inhibition of human CaMK2delta at 10 uM after 60 mins by TR-FRET assay; values are per cent of control
[20] = molecular target: Mitogen-activated protein kinase 1 (Mus musculus) (UniProt P63085); assay: Inhibition of mouse MAPK2 at 10 uM after 60 mins by TR-FRET assay; values are per cent of control
[21] = molecular target: Serine/threonine-protein kinase PAK 2 (Homo sapiens) (UniProt Q13177); assay: Inhibition of human PAK2 at 10 uM after 60 mins by TR-FRET assay; values are per cent of control
[22] = molecular target: Protein kinase C beta type (Homo sapiens) (UniProt P05771); assay: Inhibition of human PKCbeta1 at 10 uM after 60 mins by TR-FRET assay; values are per cent of control
[23] = molecular target: Fibroblast growth factor receptor 1 (Homo sapiens) (UniProt P11362); assay: Inhibition of human FGFR1 at 10 uM after 60 mins by TR-FRET assay; values are per cent of control
[24] = molecular target: Serine/threonine-protein kinase N2 (Homo sapiens) (UniProt Q16513); assay: Inhibition of human PRK2 at 10 uM after 60 mins by TR-FRET assay; values are per cent of control
[25] = molecular target: MAP kinase-activated protein kinase 3 (Homo sapiens) (UniProt Q16644); assay: Inhibition of human MAPKAP-K3 at 10 uM after 60 mins by TR-FRET assay; values are per cent of control
[26] = tested on: Tyrosine-protein kinase ABL1 (Homo sapiens), P00519 [Y253F]; assay: Inhibition of human Abl Y253F mutant at 10 uM after 60 mins by TR-FRET assay; values are per cent of control
[27] = molecular target: RAC-alpha serine/threonine-protein kinase (Homo sapiens) (UniProt P31749); assay: Inhibition of human PKBalpha at 10 uM after 60 mins by TR-FRET assay; values are per cent of control
[28] = molecular target: Ribosomal protein S6 kinase alpha-5 (Homo sapiens) (UniProt O75582); assay: Inhibition of human MSK1 at 10 uM after 60 mins by TR-FRET assay; details: values are per cent of control

Chain of Serine/threonine-protein kinase TAO1 (Homo sapiens) (Q7L7X3 whole entry): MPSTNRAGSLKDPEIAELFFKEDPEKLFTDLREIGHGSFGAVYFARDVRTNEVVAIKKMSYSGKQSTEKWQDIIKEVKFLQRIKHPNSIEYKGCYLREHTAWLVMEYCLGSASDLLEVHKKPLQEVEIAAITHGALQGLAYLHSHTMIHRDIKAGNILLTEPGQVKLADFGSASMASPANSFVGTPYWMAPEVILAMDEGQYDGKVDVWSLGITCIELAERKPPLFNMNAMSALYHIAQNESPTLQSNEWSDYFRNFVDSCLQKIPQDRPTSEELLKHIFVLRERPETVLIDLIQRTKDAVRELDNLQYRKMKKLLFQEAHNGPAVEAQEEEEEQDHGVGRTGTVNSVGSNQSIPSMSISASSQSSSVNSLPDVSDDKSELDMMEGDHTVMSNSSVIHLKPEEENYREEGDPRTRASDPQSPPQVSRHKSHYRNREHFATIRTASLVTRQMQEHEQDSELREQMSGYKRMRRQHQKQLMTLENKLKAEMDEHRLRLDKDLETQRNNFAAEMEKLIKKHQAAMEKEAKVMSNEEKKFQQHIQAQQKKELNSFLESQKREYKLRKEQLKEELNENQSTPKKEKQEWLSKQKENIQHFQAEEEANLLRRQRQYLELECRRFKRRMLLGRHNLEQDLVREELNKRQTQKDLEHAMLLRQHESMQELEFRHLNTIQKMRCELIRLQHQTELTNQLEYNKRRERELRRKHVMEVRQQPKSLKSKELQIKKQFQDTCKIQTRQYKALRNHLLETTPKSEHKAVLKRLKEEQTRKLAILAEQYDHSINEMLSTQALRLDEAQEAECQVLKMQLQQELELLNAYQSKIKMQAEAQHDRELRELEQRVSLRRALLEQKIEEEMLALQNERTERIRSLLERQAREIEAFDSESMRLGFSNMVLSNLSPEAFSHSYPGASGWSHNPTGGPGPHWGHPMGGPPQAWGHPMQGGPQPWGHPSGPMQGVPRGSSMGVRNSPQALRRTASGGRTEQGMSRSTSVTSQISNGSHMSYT
Chain of Platelet-derived growth factor receptor beta (Homo sapiens) (P09619 whole entry): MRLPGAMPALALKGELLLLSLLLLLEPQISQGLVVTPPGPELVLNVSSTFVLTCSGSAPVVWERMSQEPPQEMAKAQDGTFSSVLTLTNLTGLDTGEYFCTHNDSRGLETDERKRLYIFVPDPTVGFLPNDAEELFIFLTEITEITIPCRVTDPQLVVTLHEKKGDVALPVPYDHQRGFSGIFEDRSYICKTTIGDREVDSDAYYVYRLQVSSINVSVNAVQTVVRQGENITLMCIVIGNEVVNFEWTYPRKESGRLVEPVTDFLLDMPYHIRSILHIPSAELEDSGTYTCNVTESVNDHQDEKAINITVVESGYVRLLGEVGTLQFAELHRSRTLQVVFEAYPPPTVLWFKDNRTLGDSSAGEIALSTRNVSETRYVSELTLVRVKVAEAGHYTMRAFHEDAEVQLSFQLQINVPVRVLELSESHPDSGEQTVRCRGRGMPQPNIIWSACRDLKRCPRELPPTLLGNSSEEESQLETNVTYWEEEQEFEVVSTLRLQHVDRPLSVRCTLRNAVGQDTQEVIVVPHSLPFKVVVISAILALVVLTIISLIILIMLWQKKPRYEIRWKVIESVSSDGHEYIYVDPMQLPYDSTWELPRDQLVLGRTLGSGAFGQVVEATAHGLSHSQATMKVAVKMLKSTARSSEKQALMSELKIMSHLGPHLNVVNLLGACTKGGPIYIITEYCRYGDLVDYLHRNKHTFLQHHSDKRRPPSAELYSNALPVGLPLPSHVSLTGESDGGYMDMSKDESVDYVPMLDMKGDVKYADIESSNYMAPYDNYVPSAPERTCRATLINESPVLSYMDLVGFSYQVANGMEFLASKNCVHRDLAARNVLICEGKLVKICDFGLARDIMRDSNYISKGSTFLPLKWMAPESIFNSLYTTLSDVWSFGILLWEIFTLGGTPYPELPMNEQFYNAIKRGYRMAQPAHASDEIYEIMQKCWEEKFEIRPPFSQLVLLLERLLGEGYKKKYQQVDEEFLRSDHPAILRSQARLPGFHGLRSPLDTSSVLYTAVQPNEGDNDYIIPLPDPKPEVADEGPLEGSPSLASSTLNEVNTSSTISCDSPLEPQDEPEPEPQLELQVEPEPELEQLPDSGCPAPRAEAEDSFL
Chain of Dual specificity mitogen-activated protein kinase kinase 4 (Mus musculus) (P47809 whole entry): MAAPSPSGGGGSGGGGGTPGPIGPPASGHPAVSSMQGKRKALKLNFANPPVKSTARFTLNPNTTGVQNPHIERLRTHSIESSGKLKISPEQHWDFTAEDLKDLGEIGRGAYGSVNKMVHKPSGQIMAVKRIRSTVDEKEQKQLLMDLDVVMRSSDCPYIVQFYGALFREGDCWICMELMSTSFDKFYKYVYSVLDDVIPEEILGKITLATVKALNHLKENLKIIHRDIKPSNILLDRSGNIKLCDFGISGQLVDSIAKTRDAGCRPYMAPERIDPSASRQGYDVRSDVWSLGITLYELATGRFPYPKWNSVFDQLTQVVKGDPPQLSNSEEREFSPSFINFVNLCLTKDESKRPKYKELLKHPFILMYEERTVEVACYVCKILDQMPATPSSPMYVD
Chain of MAP kinase-activated protein kinase 3 (Homo sapiens) (Q16644 whole entry, looked up): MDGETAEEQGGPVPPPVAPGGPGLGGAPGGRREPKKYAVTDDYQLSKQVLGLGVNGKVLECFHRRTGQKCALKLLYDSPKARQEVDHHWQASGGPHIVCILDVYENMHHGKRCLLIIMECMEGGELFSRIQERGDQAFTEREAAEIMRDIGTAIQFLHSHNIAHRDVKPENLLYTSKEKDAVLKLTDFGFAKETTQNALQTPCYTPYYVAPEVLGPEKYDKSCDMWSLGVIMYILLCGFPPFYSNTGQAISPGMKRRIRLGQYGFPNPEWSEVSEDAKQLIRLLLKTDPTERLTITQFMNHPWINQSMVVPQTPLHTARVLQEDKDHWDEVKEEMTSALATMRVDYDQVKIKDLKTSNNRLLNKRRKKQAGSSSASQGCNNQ
Chain of Ribosomal protein S6 kinase alpha-2 (Homo sapiens) (Q15349 whole entry): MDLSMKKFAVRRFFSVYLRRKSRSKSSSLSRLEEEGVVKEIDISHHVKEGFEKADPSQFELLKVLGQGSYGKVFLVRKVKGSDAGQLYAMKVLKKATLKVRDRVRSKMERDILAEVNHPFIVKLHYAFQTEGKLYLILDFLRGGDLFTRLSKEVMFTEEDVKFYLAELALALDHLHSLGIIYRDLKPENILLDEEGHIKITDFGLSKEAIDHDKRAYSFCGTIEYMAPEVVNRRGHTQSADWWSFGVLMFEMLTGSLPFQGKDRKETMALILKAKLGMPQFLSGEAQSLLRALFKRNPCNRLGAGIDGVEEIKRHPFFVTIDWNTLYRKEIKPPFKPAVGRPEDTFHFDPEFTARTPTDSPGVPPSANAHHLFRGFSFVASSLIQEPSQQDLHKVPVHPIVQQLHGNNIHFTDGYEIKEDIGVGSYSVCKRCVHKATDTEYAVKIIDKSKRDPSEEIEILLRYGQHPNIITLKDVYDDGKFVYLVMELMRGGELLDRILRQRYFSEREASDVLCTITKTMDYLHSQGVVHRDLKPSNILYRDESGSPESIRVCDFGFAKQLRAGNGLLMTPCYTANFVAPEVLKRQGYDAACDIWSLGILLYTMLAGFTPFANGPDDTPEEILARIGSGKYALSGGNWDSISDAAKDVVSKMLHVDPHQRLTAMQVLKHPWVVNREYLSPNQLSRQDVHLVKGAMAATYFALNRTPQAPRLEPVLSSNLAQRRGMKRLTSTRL
Chain of Ephrin type-A receptor 5 (Homo sapiens) (P54756 whole entry): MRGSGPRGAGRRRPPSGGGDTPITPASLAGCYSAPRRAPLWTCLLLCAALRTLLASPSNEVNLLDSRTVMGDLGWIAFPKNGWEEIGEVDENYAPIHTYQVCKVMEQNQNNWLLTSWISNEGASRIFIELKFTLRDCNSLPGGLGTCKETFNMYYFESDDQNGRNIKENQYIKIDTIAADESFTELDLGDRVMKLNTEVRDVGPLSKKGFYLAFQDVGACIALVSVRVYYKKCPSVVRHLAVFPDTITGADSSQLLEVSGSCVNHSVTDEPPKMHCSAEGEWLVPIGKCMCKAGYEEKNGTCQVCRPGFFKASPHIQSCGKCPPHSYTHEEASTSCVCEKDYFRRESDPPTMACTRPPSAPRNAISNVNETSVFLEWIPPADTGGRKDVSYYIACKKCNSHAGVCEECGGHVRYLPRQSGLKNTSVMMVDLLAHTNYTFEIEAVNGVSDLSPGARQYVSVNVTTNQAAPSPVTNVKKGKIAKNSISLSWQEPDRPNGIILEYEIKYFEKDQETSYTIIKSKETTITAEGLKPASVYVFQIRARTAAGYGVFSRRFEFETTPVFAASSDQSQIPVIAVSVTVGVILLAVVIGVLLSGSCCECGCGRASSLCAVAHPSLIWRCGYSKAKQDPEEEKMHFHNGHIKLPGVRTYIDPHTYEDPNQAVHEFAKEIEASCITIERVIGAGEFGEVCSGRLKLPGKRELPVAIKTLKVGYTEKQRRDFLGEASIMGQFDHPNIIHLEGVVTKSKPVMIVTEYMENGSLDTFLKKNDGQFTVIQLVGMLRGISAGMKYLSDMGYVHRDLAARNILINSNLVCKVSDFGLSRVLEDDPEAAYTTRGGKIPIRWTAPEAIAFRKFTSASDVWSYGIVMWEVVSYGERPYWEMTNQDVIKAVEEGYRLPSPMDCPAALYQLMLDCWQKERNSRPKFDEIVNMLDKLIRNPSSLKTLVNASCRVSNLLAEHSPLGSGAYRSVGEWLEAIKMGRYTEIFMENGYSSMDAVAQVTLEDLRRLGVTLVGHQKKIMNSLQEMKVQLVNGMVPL
Chain of Mitogen-activated protein kinase 1 (Mus musculus) (P63085 whole entry): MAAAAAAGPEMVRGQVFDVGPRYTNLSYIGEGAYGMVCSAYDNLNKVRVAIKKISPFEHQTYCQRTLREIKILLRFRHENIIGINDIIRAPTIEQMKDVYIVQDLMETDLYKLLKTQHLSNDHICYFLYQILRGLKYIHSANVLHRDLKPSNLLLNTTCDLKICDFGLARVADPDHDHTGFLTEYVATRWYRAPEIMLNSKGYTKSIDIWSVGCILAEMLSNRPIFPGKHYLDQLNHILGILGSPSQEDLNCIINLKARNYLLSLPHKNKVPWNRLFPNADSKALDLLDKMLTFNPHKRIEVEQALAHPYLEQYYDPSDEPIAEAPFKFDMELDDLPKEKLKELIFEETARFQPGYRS

- residual activity [1]: 99%
- residual activity [2]: 124%
- residual activity [3]: 89%
- residual activity [4]: 113%
- residual activity [5]: 113%
- residual activity [6]: 90%
- residual activity [7]: 104%
- residual activity [8]: 113%
- residual activity [9]: 102%
- residual activity [10]: 110%
- residual activity [11]: 90%
- residual activity [12]: 116%
- residual activity [13]: 110%
- residual activity [14]: 106%
- residual activity [15]: 105%
- residual activity [16]: 105%
- residual activity [17]: 100%
- residual activity [18]: 108%
- residual activity [19]: 106%
- residual activity [20]: 114%
- residual activity [21]: 108%
- residual activity [22]: 109%
- residual activity [23]: 98%
- residual activity [24]: 112%
- residual activity [25]: 112%
- residual activity [26]: 105%
- residual activity [27]: 99%
- residual activity [28]: 114%
SMILES: S=c1[nH]nc(-c2ccncc2)n1-c1ccc2ccccc2c1
